These results are taken from ChEMBL document CHEMBL3616440, “Non-basic azolotriazinone MCHR1 antagonists for the treatment of obesity: An empirical brain-exposures-driven candidate selection for in vivo efficacy studies” (Bioorg Med Chem Lett, 2015).

For orientation: inhibition in vivo means the share of the control response that was lost under treatment. Usually IC50 stands for the midpoint of a concentration-inhibition curve. A word on the inhibition: it is the relative decrease from the control value, in per cent. The low end stands for a weak effect, the high end for a strong effect. As usually defined, the Ki is a measure of affinity in units of concentration, obtained from inhibition or displacement. A high value points to weaker binding.

The structures appear in SMILES notation.

The test system of data set [1] is Brain. Description: Drug concentration in Sprague-Dawley rat brain assessed as 6-(4-chlorophenyl)-3-(6-(4-hydroxypiperidin-1-yl)pyridin-3-yl)pyrrolo[1,2-f][1,2,4]triazin-4(3H)-one level at 30 mg/kg, po qd at 20 hrs. To be noted: in vivo, read-out: Drug uptake. It counts as ADME, organism-based.
For data set [2], the system named is Brain. Description: Free drug level in Sprague-Dawley rat brain assessed as 6-(4-chlorophenyl)-3-(6-(4-hydroxypiperidin-1-yl)pyridin-3-yl)pyrrolo[1,2-f][1,2,4]triazin-4(3H)-one level at 30 mg/kg, po qd at 20 hrs. It is filed as ADME, organism-based. The settings on record: in vivo.
Data set [3] can be described thus: Ratio of free drug level in brain of Sprague-Dawley rat assessed as 6-(4-chlorophenyl)-3-(6-(4-hydroxypiperidin-1-yl)pyridin-3-yl)pyrrolo[1,2-f][1,2,4]triazin-4(3H)-one level at 30 mg/kg, po to Ki for rat MCHR1. It is filed as ADME, organism-based. To be noted: in vivo.
The test system of data set [4] is Brain. Description: Drug concentration in Sprague-Dawley rat brain assessed as 6-(4-chlorophenyl)-3-(6-(4-hydroxypiperidin-1-yl)pyridin-3-yl)pyrrolo[1,2-f][1,2,4]triazin-4(3H)-one level at 10 mg/kg, po qd at 20 hrs. It is filed as ADME, organism-based. To be noted: in vivo, read-out: Drug uptake.
Data set [5] has as its system Rattus norvegicus. Description: Antiobesity activity in Sprague-Dawley rat assessed as body weight reduction at 10 mg/kg, po qd after 4 days relative to control. It counts as functional. The settings on record: 96 h.
The subject of data set [6] is Brain. Description: Free drug level in Sprague-Dawley rat brain assessed as 6-(4-chlorophenyl)-3-(6-(4-hydroxypiperidin-1-yl)pyridin-3-yl)pyrrolo[1,2-f][1,2,4]triazin-4(3H)-one level at 10 mg/kg, po qd at 20 hrs. The settings on record: in vivo. It is filed as ADME, organism-based.
Data set [7] can be described thus: Ratio of free drug level in brain of Sprague-Dawley rat assessed as 6-(4-chlorophenyl)-3-(6-(4-hydroxypiperidin-1-yl)pyridin-3-yl)pyrrolo[1,2-f][1,2,4]triazin-4(3H)-one level at 10 mg/kg, po to Ki for rat MCHR1. The settings on record: in vivo. It counts as ADME, organism-based.
Data set [8] has as its system Brain. Description: Free drug level in Sprague-Dawley rat brain assessed as 6-(4-chlorophenyl)-3-(6-(4-hydroxypiperidin-1-yl)pyridin-3-yl)pyrrolo[1,2-f][1,2,4]triazin-4(3H)-one level at 3 mg/kg, po qd at 20 hrs. It counts as ADME, organism-based. To be noted: in vivo.
Data set [9] deals with Plasma. Description: Fraction unbound in Sprague-Dawley rat plasma assessed as 6-(4-chlorophenyl)-3-(6-(4-hydroxypiperidin-1-yl)pyridin-3-yl)pyrrolo[1,2-f][1,2,4]triazin-4(3H)-one level. It counts as ADME, cell-free.
A short description of data set [10]: Ratio of free drug level in brain of Sprague-Dawley rat assessed as 6-(4-chlorophenyl)-3-(6-(4-hydroxypiperidin-1-yl)pyridin-3-yl)pyrrolo[1,2-f][1,2,4]triazin-4(3H)-one level at 3 mg/kg, po to Ki for rat MCHR1. It counts as ADME, organism-based. The settings on record: in vivo.
The subject of data set [11] is Brain. Description: Drug concentration in Sprague-Dawley rat brain assessed as 6-(4-chlorophenyl)-3-(6-(4-hydroxypiperidin-1-yl)pyridin-3-yl)pyrrolo[1,2-f][1,2,4]triazin-4(3H)-one level at 3 mg/kg, po qd at 20 hrs. It is filed as ADME, organism-based. The settings on record: in vivo, read-out: Drug uptake.
Data set [12] concerns Rattus norvegicus. Description: Antiobesity activity in Sprague-Dawley rat assessed as body weight reduction at 3 mg/kg, po qd after 4 days relative to control. It is filed as functional. To be noted: 96 h.
In data set [13] the test system is Rattus norvegicus. Description: Antiobesity activity in Sprague-Dawley rat assessed as body weight reduction at 30 mg/kg, po qd after 4 days relative to control. It counts as functional. The settings on record: 96 h.
The test system of data set [14] is Brain. Description: Drug concentration in Sprague-Dawley rat brain assessed as 6-(5-chloropyridin-2-yl)-3-(4-((3,3-difluoro-1-hydroxycyclobutyl)methoxy)-3-methoxyphenyl)pyrrolo[1,2-f][1,2,4]triazin-4(3H)-one level at 10 mg/kg, po qd at 8 hrs. It counts as ADME, organism-based. The settings on record: in vivo, read-out: Drug uptake.
In another data set the test system is Nucleic Acid. Description: Ratio of drug level in Sprague-Dawley rat brain to plasma assessed as 6-(5-chloropyridin-2-yl)-3-(4-((3,3-difluoro-1-hydroxycyclobutyl)methoxy)-3-methoxyphenyl)pyrrolo[1,2-f][1,2,4]triazin-4(3H)-one level at 10 mg/kg, po qd. It is filed as ADME, organism-based.
Data set [15] can be described thus: Ratio of free drug level in brain of Sprague-Dawley rat assessed as 6-(5-chloropyridin-2-yl)-3-(4-((3,3-difluoro-1-hydroxycyclobutyl)methoxy)-3-methoxyphenyl)pyrrolo[1,2-f][1,2,4]triazin-4(3H)-one level at 3 mg/kg, po to Ki for rat MCHR1. The settings on record: in vivo. It counts as ADME, organism-based.
Data set [16] can be described thus: Ratio of free drug level in brain of Sprague-Dawley rat assessed as 6-(5-chloropyridin-2-yl)-3-(4-((3,3-difluoro-1-hydroxycyclobutyl)methoxy)-3-methoxyphenyl)pyrrolo[1,2-f][1,2,4]triazin-4(3H)-one level at 30 mg/kg, po to Ki for rat MCHR1. It counts as ADME, organism-based. The settings on record: in vivo.
For data set [17], the system named is Brain. Description: Free drug level in Sprague-Dawley rat brain assessed as 6-(5-chloropyridin-2-yl)-3-(4-((3,3-difluoro-1-hydroxycyclobutyl)methoxy)-3-methoxyphenyl)pyrrolo[1,2-f][1,2,4]triazin-4(3H)-one level at 30 mg/kg, po qd at 20 hrs. It is filed as ADME, organism-based. The settings on record: in vivo.
For data set [18], the system named is Brain. Description: Drug concentration in Sprague-Dawley rat brain assessed as 6-(5-chloropyridin-2-yl)-3-(4-((3,3-difluoro-1-hydroxycyclobutyl)methoxy)-3-methoxyphenyl)pyrrolo[1,2-f][1,2,4]triazin-4(3H)-one level at 3 mg/kg, po qd at 20 hrs. It counts as ADME, organism-based. The settings on record: in vivo, read-out: Drug uptake.
Data set [19] in a line: Ratio of free drug level in brain of Sprague-Dawley rat assessed as 6-(5-chloropyridin-2-yl)-3-(4-((3,3-difluoro-1-hydroxycyclobutyl)methoxy)-3-methoxyphenyl)pyrrolo[1,2-f][1,2,4]triazin-4(3H)-one level at 10 mg/kg, po to Ki for rat MCHR1. To be noted: in vivo. It counts as ADME, organism-based.
For data set [20], the system named is Plasma. Description: Fraction unbound in Sprague-Dawley rat plasma assessed as 6-(5-chloropyridin-2-yl)-3-(4-((3,3-difluoro-1-hydroxycyclobutyl)methoxy)-3-methoxyphenyl)pyrrolo[1,2-f][1,2,4]triazin-4(3H)-one level. It is filed as ADME, cell-free.
Data set [21] has as its system Brain. Description: Drug concentration in Sprague-Dawley rat brain assessed as 6-(5-chloropyridin-2-yl)-3-(4-((3,3-difluoro-1-hydroxycyclobutyl)methoxy)-3-methoxyphenyl)pyrrolo[1,2-f][1,2,4]triazin-4(3H)-one level at 30 mg/kg, po qd at 20 hrs. It counts as ADME, organism-based. To be noted: in vivo, read-out: Drug uptake.
In data set [22] the test system is Brain. Description: Drug concentration in Sprague-Dawley rat brain assessed as 6-(5-chloropyridin-2-yl)-3-(4-((3,3-difluoro-1-hydroxycyclobutyl)methoxy)-3-methoxyphenyl)pyrrolo[1,2-f][1,2,4]triazin-4(3H)-one level at 10 mg/kg, po qd at 20 hrs. It is filed as ADME, organism-based. To be noted: in vivo, read-out: Drug uptake.
The subject of data set [23] is Brain. Description: Free drug level in Sprague-Dawley rat brain assessed as 6-(5-chloropyridin-2-yl)-3-(4-((3,3-difluoro-1-hydroxycyclobutyl)methoxy)-3-methoxyphenyl)pyrrolo[1,2-f][1,2,4]triazin-4(3H)-one level at 3 mg/kg, po qd at 20 hrs. It counts as ADME, organism-based. The settings on record: in vivo.
Data set [24] deals with Brain. Description: Free drug level in Sprague-Dawley rat brain assessed as 6-(5-chloropyridin-2-yl)-3-(4-((3,3-difluoro-1-hydroxycyclobutyl)methoxy)-3-methoxyphenyl)pyrrolo[1,2-f][1,2,4]triazin-4(3H)-one level at 10 mg/kg, po qd at 20 hrs. It counts as ADME, organism-based. To be noted: in vivo.
The test system of data set [25] is Plasma. Description: Plasma concentration in Sprague-Dawley rat assessed as 6-(5-chloropyridin-2-yl)-3-(4-((3,3-difluoro-1-hydroxycyclobutyl)methoxy)-3-methoxyphenyl)pyrrolo[1,2-f][1,2,4]triazin-4(3H)-one level at 10 mg/kg, po qd at 8 hrs. The settings on record: in vivo. It is filed as ADME, organism-based.
Data set [26] addresses Melanin-concentrating hormone receptor 1 (Homo sapiens, UniProt Q99705). Description: Antagonist activity at human MCHR1 expressed in HEK293 cells assessed as inhibition of MCH-induced Ca2+ influx for 120 mins by FLIPR assay. It counts as functional, cell-based.
The test system of data set [27] is Brain. Description: Drug concentration in Sprague-Dawley rat brain assessed as 6-(4-chlorophenyl)-3-(4-(2-hydroxy-2-methylpropoxy)-3-methoxyphenyl)thieno[3,2-d]pyrimidin-4(3H)-one level at 10 mg/kg, po qd at 20 hrs. The settings on record: in vivo, read-out: Drug uptake. It is filed as ADME, organism-based.
Data set [28] concerns the target Melanin-concentrating hormone receptor 1 (Rattus norvegicus) (UniProt P97639). To be noted: 10 uM.
Description: Displacement of [125I][Phe13,Tyr19]-MCH from rat MCHR1 at 10 uM by scintillation counting analysis
In data set [29] the target is Melanin-concentrating hormone receptor 1 (Rattus norvegicus, UniProt P97639). Description: Displacement of [125I][Phe13,Tyr19]-MCH from rat MCHR1 by scintillation counting analysis. In general terms: Displacement assays read how much labelled ligand stays bound in the presence of the test substance.
For data set [30], the system named is Rattus norvegicus. Description: Toxicity in oral-dosed Sprague-Dawley rat assessed as biliary lesion after 30 days. It is filed as organism-based. The settings on record: in vivo, 720 h.

Sequence of Melanin-concentrating hormone receptor 1 (Rattus norvegicus) (P97639 whole entry): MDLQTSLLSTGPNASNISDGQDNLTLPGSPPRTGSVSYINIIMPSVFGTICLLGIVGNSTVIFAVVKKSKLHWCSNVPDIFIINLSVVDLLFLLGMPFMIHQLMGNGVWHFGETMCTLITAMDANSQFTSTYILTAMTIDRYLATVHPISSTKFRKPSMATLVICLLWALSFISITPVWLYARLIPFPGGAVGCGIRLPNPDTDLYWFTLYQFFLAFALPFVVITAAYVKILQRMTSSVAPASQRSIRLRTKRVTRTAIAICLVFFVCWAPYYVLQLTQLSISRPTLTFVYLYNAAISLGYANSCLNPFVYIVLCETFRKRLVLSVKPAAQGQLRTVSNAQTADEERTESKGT
Sequence of Melanin-concentrating hormone receptor 1 (Rattus norvegicus, UniProt P97639) (P97639 whole entry): as above
Sequence of Melanin-concentrating hormone receptor 1 (Homo sapiens, UniProt Q99705) (Q99705 whole entry): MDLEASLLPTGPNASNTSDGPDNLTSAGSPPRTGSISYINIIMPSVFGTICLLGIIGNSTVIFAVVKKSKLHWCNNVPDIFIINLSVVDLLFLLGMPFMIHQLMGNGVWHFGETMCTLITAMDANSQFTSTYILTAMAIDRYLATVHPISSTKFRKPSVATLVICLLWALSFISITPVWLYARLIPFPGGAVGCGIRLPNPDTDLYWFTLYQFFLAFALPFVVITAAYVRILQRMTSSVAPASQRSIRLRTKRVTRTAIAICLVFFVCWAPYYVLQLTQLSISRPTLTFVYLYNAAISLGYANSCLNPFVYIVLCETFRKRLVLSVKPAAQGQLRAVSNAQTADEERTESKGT

For the compound `CC(C)[C@H](N)C(=O)OC1CCN(c2ccc(-n3cnn4cc(-c5ccc(Cl)cc5)cc4c3=O)cn2)CC1`, the results for the concentration in the data set with Brain [1], in the data set on Brain [4] and in the data set with Brain [11] were 15.1 µM, 10.1 µM and 1.97 µM, respectively. The “Drug uptake(free)” value with Brain [2] is listed as under 30 nM; in the data set on Brain [6], under 20 nM; in the data set on Brain [8], under 3.9 nM. In addition, the Ratio was under 1.7 in [3], under 1.1 in data set [7] and under 0.2 in [10]. In addition, in the data set on Rattus norvegicus [5], the inhibition in vivo at 10 mg/kg was determined as 1.3%. In the data set on Plasma [9], the Fu is listed as under 0.2%. The inhibition in vivo at 3 mg/kg with Rattus norvegicus [12] was 1.3%. Also, the inhibition in vivo at 30 mg/kg with Rattus norvegicus [13] worked out at 2.6%.

`COc1cc(-n2cnn3cc(-c4ccc(Cl)cn4)cc3c2=O)ccc1OCC1(OC(=O)CN)CC(F)(F)C1`: the concentration in the data set on Brain [14] came to 3.59 µM; in the data set on Brain [18], 3.87 µM; in the data set with Brain [21], 23.9 µM; with Brain [22], 16 µM; with Plasma [25], 5.59 µM. Also, in the data set on Nucleic Acid, the BPR is 0.6. For the same compound, the Ratio result in data set [15] is “<= 0.6”; in data set [16], “<= 3.7”; in data set [19] it was “<= 2.5”. Also, the inhibition in vivo at 10 mg/kg in the data set on Rattus norvegicus [5] was found to be 4.4%. Further, the results for the “Drug uptake(free)” value with Brain [17], with Brain [23] and with Brain [24] were 624 nM, 63.9 nM and 616 nM, respectively. Also, in the data set on Plasma [20], the Fu result was “<= 0.1%”. In addition, in the data set with Rattus norvegicus [12], the inhibition in vivo at 3 mg/kg stood at 1.6%. Further, in the data set with Rattus norvegicus [13], the inhibition in vivo at 30 mg/kg came to 13%.

Turning to `COc1cc(-n2cnc3cc(-c4ccc(Cl)cc4)sc3c2=O)ccc1OCC(C)(C)O`, the IC50 in [26] is 16 nM. Further, the concentration with Brain [27] is 1.61 µM. The compound also displayed an inhibition in data set [28] of over 90%. Further, the affinity in data set [29] corresponds to a Ki of 7.2 nM. In the data set on Rattus norvegicus [30], the Activity result was “Toxic”.
